What was measured:
Assay type in all cases: functional
[1] = system: K562; assay: Cytotoxicity against human K562 cells after 48 hrs by sulforhodamine B assay; conditions: K562, 48 h
[2] = system: HCC 2998; assay: Cytotoxicity against human HCC2998 cells assessed as cell growth level at 10 nM after 48 hrs by sulforhodamine B assay
[3] = system: KM12; assay: Cytotoxicity against human KM12 cells after 48 hrs by sulforhodamine B assay; conditions: KM12, 48 h
[4] = system: HCT-15; assay: Cytotoxicity against human HCT15 cells assessed as cell growth level at 1 uM after 48 hrs by sulforhodamine B assay
[5] = system: UACC-62; assay: Cytotoxicity against human UACC62 cells assessed as cell growth level at 10 nM after 48 hrs by sulforhodamine B assay
[6] = system: LOX IMVI; assay: Cytotoxicity against human LOXIMVI cells assessed as cell growth level at 1 uM after 48 hrs by sulforhodamine B assay
[7] = system: HCT-15; assay: Cytotoxicity against human HCT15 cells assessed as cell growth level at 10 uM after 48 hrs by sulforhodamine B assay
[8] = system: MDA-MB-468; assay: Cytotoxicity against human MDA-MB-468 cells assessed as cell growth level at 1 uM after 48 hrs by sulforhodamine B assay
[9] = system: SK-MEL-28; assay: Cytotoxicity against human SK-MEL-28 cells assessed as cell growth level at 100 nM after 48 hrs by sulforhodamine B assay
[10] = system: SN12C; assay: Cytotoxicity against human SN12C cells assessed as cell growth level at 100 nM after 48 hrs by sulforhodamine B assay
[11] = system: NCI-H322M; assay: Cytotoxicity against human NCI-H322M cells assessed as cell growth level at 100 uM after 48 hrs by sulforhodamine B assay
[12] = system: HOP-92; assay: Cytotoxicity against human HOP92 cells assessed as cell growth level at 10 uM after 48 hrs by sulforhodamine B assay
[13] = system: U-251; assay: Cytotoxicity against human U251 cells assessed as cell growth level at 100 uM after 48 hrs by sulforhodamine B assay
[14] = system: U-251; assay: Cytotoxicity against human U251 cells assessed as cell growth level at 10 nM after 48 hrs by sulforhodamine B assay
[15] = system: T47D; assay: Cytotoxicity against human T47D cells assessed as cell growth level at 1 uM after 48 hrs by sulforhodamine B assay
[16] = system: UO-31; assay: Cytotoxicity against human UO31 cells assessed as cell growth level at 10 nM after 48 hrs by sulforhodamine B assay
[17] = system: SF-268; assay: Cytotoxicity against human SF268 cells assessed as cell growth level at 10 nM after 48 hrs by sulforhodamine B assay
[18] = system: DU-145; assay: Cytotoxicity against human DU145 cells assessed as cell growth level at 10 uM after 48 hrs by sulforhodamine B assay
[19] = system: Bacillus subtilis; assay: Antibacterial activity against Bacillus subtilis assessed as bacterial growth inhibition at 50 ug/ml after 24 hrs by cup-plate agar diffusion method; conditions: read-out: IZ
[20] = system: MDA-MB-231; assay: Cytotoxicity against human MDA-MB-231/ATCC cells assessed as cell growth level at 10 nM after 48 hrs by sulforhodamine B assay
[21] = system: OVCAR-3; assay: Cytotoxicity against human OVCAR3 cells after 48 hrs by sulforhodamine B assay; conditions: OVCAR-3, 48 h
[22] = system: NCI-H23; assay: Cytotoxicity against human NCI-H23 cells after 48 hrs by sulforhodamine B assay; conditions: NCI-H23, 48 h
[23] = system: RPMI-8226; assay: Cytotoxicity against human RPMI8226 cells assessed as cell growth level at 1 uM after 48 hrs by sulforhodamine B assay
[24] = system: 786-0; assay: Cytotoxicity against human 786-0 cells assessed as cell growth level at 1 uM after 48 hrs by sulforhodamine B assay
[25] = system: HOP-62; assay: Cytotoxicity against human HOP62 cells assessed as cell growth level at 10 nM after 48 hrs by sulforhodamine B assay
[26] = system: OVCAR-8; assay: Cytotoxicity against human OVCAR8 cells assessed as cell growth level at 10 nM after 48 hrs by sulforhodamine B assay
[27] = system: UACC-257; assay: Cytotoxicity against human UACC257 cells assessed as cell growth level at 1 uM after 48 hrs by sulforhodamine B assay
[28] = system: RPMI-8226; assay: Cytotoxicity against human RPMI8226 cells assessed as cell growth level at 100 uM after 48 hrs by sulforhodamine B assay
[29] = system: MDA-MB-435; assay: Cytotoxicity against human MDA-MB-435 cells assessed as cell growth level at 10 uM after 48 hrs by sulforhodamine B assay
[30] = system: NCI-H23; assay: Cytotoxicity against human NCI-H23 cells assessed as cell growth level at 100 uM after 48 hrs by sulforhodamine B assay
[31] = system: SF-295; assay: Cytotoxicity against human SF295 cells after 48 hrs by sulforhodamine B assay; conditions: SF-295, 48 h
[32] = system: BT-549; assay: Cytotoxicity against human BT549 cells after 48 hrs by sulforhodamine B assay; conditions: BT-549, 48 h
[33] = system: SK-MEL-28; assay: Cytotoxicity against human SK-MEL-28 cells assessed as cell growth level at 1 uM after 48 hrs by sulforhodamine B assay
[34] = system: 786-0; assay: Cytotoxicity against human 786-0 cells assessed as cell growth level at 100 nM after 48 hrs by sulforhodamine B assay
[35] = system: NCI-H23; assay: Cytotoxicity against human NCI-H23 cells assessed as cell growth level at 1 uM after 48 hrs by sulforhodamine B assay
[36] = system: HCT-15; assay: Cytotoxicity against human HCT15 cells after 48 hrs by sulforhodamine B assay; conditions: HCT-15, 48 h
[37] = system: HCT-116; assay: Cytotoxicity against human HCT116 cells assessed as cell growth level at 10 nM after 48 hrs by sulforhodamine B assay
[38] = read-out: LC50 (the source's name)
[39] = read-out: pLC50 (the source's name) (converted)

For `O=c1oc2ccccc2cc1-c1csc(N/N=C/c2c[nH]c3ccccc23)n1`, the GI50 ([1]; read-out: GI50) was 3.18 µM, the LC50 ([1]; read-out: LC50) was > 100 µM and the TGI ([1]; read-out: TGI) was 10.4 µM. The GI50 ([1]; read-out: pGI50 (converted)) was 3.16 µM, the LC50 ([1]; read-out: pLC50 (converted)) was > 100 µM and the TGI ([1]; read-out: pTGI (converted)) was 10.5 µM. For the same compound, the Activity [2] was 99%, the GI50 ([3]; read-out: GI50) was 1.86 µM and the CC50 [3, 38] was 9.22 µM. The TGI ([3]; read-out: TGI) was 4.14 µM, the GI50 ([3]; read-out: pGI50 (converted)) was 1.86 µM and the CC50 [3, 39] was 9.12 µM. The TGI ([3]; read-out: pTGI (converted)) was 4.17 µM, the Activity [4] was 84% and the Activity [5] was 95%. It also gave an Activity [6] of 74%, an Activity [7] of 12.32% and an Activity [8] of 72%. The Activity [9] was 91%, the Activity [10] was 90% and the Activity [11] was -10%. It also gave an Activity [12] of -14.45%, an Activity [13] of -89% and an Activity [14] of 100%. For the same compound, the Activity [15] was 81%, the Activity [16] was 97% and the Activity [17] was 96%. The Activity [18] was -36.09%, the zone of inhibition at 50 µg/mL [19] was 18 mm and the Activity [20] was 97%. It also gave a GI50 ([21]; read-out: GI50) of 1.16 µM, a CC50 [21, 38] of 7.31 µM and a TGI ([21]; read-out: TGI) of 2.91 µM. It also gave a GI50 ([21]; read-out: pGI50 (converted)) of 1.15 µM, a CC50 [21, 39] of 7.24 µM and a TGI ([21]; read-out: pTGI (converted)) of 2.88 µM. For the same compound, the GI50 ([22]; read-out: GI50) was 2.44 µM, the LC50 ([22]; read-out: LC50) was > 100 µM and the TGI ([22]; read-out: TGI) was 5.82 µM. For the same compound, the GI50 ([22]; read-out: pGI50 (converted)) was 2.45 µM, the LC50 ([22]; read-out: pLC50 (converted)) was > 100 µM and the TGI ([22]; read-out: pTGI (converted)) was 5.75 µM. For the same compound, the Activity [23] was 48%, the Activity [24] was 80% and the Activity [25] was 105%. For the same compound, the Activity [26] was 104%, the Activity [27] was 82% and the Activity [28] was -41%. The Activity [29] was 22.44%, the Activity [30] was -17% and the GI50 ([31]; read-out: GI50) was 2.23 µM. The CC50 [31, 38] was > 100 µM, the TGI ([31]; read-out: TGI) was 6.76 µM and the GI50 ([31]; read-out: pGI50 (converted)) was 2.24 µM. For the same compound, the CC50 [31, 39] was > 100 µM, the TGI ([31]; read-out: pTGI (converted)) was 6.76 µM and the GI50 ([32]; read-out: GI50) was 1.13 µM. For the same compound, the CC50 [32, 38] was 5.22 µM, the TGI ([32]; read-out: TGI) was 2.43 µM and the GI50 ([32]; read-out: pGI50 (converted)) was 1.12 µM. The CC50 [32, 39] was 5.25 µM, the TGI ([32]; read-out: pTGI (converted)) was 2.45 µM and the Activity [33] was 93%. For the same compound, the Activity [34] was 82%, the Activity [35] was 83% and the GI50 ([36]; read-out: GI50) was 1.61 µM. For the same compound, the CC50 [36, 38] was 7.46 µM, the TGI ([36]; read-out: TGI) was 3.47 µM and the GI50 ([36]; read-out: pGI50 (converted)) was 1.62 µM. The CC50 [36, 39] was 7.41 µM, the TGI ([36]; read-out: pTGI (converted)) was 3.47 µM and the Activity [37] was 92%.
